US5776935A, “Pyrido-phtalazin diones and their use against neurological disorders associated with excitotoxicity and malfunctioning of glutamatergic neurotransmission” (Merz & Co. GmbH & Co., priority 1996, dated 1998)
Counter-ions that a name gives are not always drawn. Like-named read-outs stand apart in the source and are kept apart here.

Legend:
NMDA receptor [1] = target: T1, NMDA receptor (Rattus norvegicus, UniProt P35439); assay: Patch clamp, inward currents to NMDA in cultured superior colliculus neurones; assay type: cell-based; settings: NMDA 200 μM, glycine 1 μM
T1 construct: endogenous in cells
Protocol: Cells were mechanically dissociated in 0.05% DNAase / 0.3% ovomucoid (Sigma) following a 15 minute pre-incubation with 0.66% trypsin / 0.1% DNAase (Sigma). The dissociated cells were then centrifuged at 18G for 10 minutes, resuspended in minimum essential medium (Gibco) and plated at a density of 200,000 cells cm onto poly-L-lysine (Sigma)-precoated plastic petri dishes (Falcon). The cells were nourished with NaHCO3 /HEPES-buffered minimum essential medium supplemented with 5% foetal calf serum and 5% horse serum (Gibco) and incubated at 37° C. with 5%CO2 at 95% humidity. The medium was exchanged completely following inhibition of further glial mitosis with cytosine-β-D-arabinofuranoside (20 μM Sigma) after about 7 days in vitro. Thereafter the medium was exchanged partially twice weekly. […] Moreover, the relatively small neurones (soma 15-20 μm .phi.) are ideally suited to minimise problems of buffered diffusion for concentration clamp experiments.
Patch clamp recordings were made from these neurones with polished glass electrodes (4-6 m.OMEGA.) in the whole cell mode at room temperature (20°-22° C.) with the aid of an EPC-7 amplifier (List). Test substances were applied by switching channels of a custom made fast superfusion system with a common outflow (10-20 ms exchange times). The contents of the intracellular solution were as follows (mM): CsCl (120), TEACl (20), EGTA (10), MgCl2 (1), CaCl2 (0.2), glucose (10), ATP (2), cAMP (0.25); pH was adjusted to 7.3 with CsOH or HCl. The extracellular solutions had the following basic composition (mM): NaCl (140), KCl (3), CaCl2 (0.2), glucose (10), HEPES (10), sucrose (4.5), tetrodotoxin (TTX 3*10-4). For most experiments glycine (1 μM) was present in all solutions. Experiments to test the glycine-dependence of the tricyclic "pyrido-phtalazin diones" were performed in the continuous presence of increasing concentrations of glycine (1-10 μM).
This effect was mediated at the glycineB site as evidenced by the parallel shift in the concentration-response curves in the presence of increasing glycine concentrations. Thus the Kbs of Mrz 2/502 as assessed according to the Cheng-Prusoff relationship were similar in glycine 1, 3 and 10 μM (80, 124 and 118 nM respectively). […] Choline derivatives had similar potencies to the free acids in vitro (Table14b).

AMPA = assay: Microelectrophoretic application of AMPA to spinal neurones in vivo; settings: i.v., responses of single rat spinal neurones
Protocol: (§1) The ability of these glycineB antagonists to act as NMDA receptor antagonists in vivo was assessed using i.v. administration against responses of single neurones in the rat spinal cord to microelectrophoretic application of AMPA and NMDA.

[2] = target: T2, glycineB site of the NMDA receptor (rat cortical membranes) (Rattus norvegicus, UniProt P35439); assay: [3H]5,7-DCKA binding assay; settings: 10 nM [3H]5,7-DCKA
T2 construct: The cortex was dissected and homogenised in 20 volumes of ice-cold 0.32M sucrose; from tissue; host or cells: brain cortex membranes of male Sprague-Dawley rats
Protocol: Tissue preparation was performed according to Foster and Wong (1987). Male Sprague-Dawley rats (200-250g) were decapitated and their brains were removed rapidly. The cortex was dissected and homogenised in 20 volumes of ice-cold 0.32M sucrose using a glass-Teflon homogenizer. The homogenate was centrifuged at 1000×g for 10 min. The pellet was discarded and the supernatant centrifuged at 20,000×g for 20 min. The resulting pellet was resuspended in 20 volumes of distilled water and centrifuged for 20 min at 8000×g. Then the supernatant and the buffy coat were centrifuged three times (48,000× g for 20 min) in the presence of 5 mM Tris-HCl, pH 7.4. All centrifugation steps were carried out at 4° C. After resuspension in 5 volumes of 5 mM Tris-HCl, pH 7.4 the membrane suspension was frozen rapidly at -80° C. until the day of assay. On the day of assay the membranes were thawed and washed four times by resuspension in 5 mM Tris-HCl, pH 7.4 and centrifugation at 48,000× g for 20 min. The final pellet was suspended in assay buffer.
The amount of protein in the final membrane preparation was determined according to the method of Lowry (1951) with some modifications (Hartfree, 1972). 50 μl of Protein samples (in triplicates) were diluted to 1 ml with distilled water and treated with 0.9 ml of a solution containing 2 g potassium sodium tartrate and 10 g Na2 CO3 in 500 ml 1N NaOH and 500ml water. Blank and standard (with bovine serum albumin) were set up in the same way. The tubes were placed in a water bath at 50° C. for 10 min. and cooled at room temperature. 100 μl of a solution containing 2 g potassium sodium tartrate and 1 g CuSO4 x 5 H2 O in 90 ml water and 10 ml 1N NaOH were added. The samples were left at room temperature for at least 10 min., then 3 ml of Folin-Ciocalteu reagent (1 ml of reagent diluted with 15 ml water) was added rapidly during mixing. The tubes were again heated at 50° C. for 10 min. and cooled to room temperature. Absorbencies were then read in 1 cm cuvets at 650 nm. The final protein concentration used for our studies was between 100 and 250 μg/ml.
Incubation in both binding assays was terminated using a Millipore filter system. The samples, all in triplicate, were rinsed three times with 2.5 ml ice cold assay buffer over glass fibre filters obtained from Schleicher & Schuell under a constant vacuum. Following separation and rinse the filters were placed into scintillation liquid (5 ml; Ultima Gold) and radioactivity retained on the filters was determined by using conventional liquid scintillation counter (Hewlett Packard, Liquid Scintillation Analyser). `Total binding` was the absolute amount of radioligand bound in the absence of any additives whereas `non-specific` binding was determined in the presence of a high concentration of competitor.
[^3 H]5,7-DCKA binding assay
Experiments were performed according to the methods modified from previous groups (Canton et al., 1991; Yoneda et al., 1993). Membranes were suspended and incubated in 10 mM Tris-HCl, pH 7.4. Incubation time was 45 min at 4° C. Non-specific binding of [^3 H]5,7-DCKA was defined by the addition of unlabeled glycine at 0.1 mM. The stop-solution contained 10 mM Tris-HCl and 10 mM magnesium sulphate, pH 7.4. Filtration was performed as rapidly as possible. Displacement experiments were performed with a fixed [^3 H]5,7-DCKA concentration of 10 nM. Test compounds were diluted in water or DMSO and added in at least 5 different concentrations.

NMDA receptor [3] = target: T3, NMDA receptor (Mus musculus, UniProt P35438); assay: Maximal electroshock (MES)-induced tonic convulsions; assay type: in vivo; settings: for MES ID50 / ED50: i.p., 15 min before induction; for ED50: mouse, ip, 0.25 h, read-out: MES ID50
T3 construct: from tissue; host or cells: living mice (albino Swiss males for NMDA and PTZ tests, NMR females for MES)
Protocol: (§2) To assess NMDA receptor antagonistic properties of the tested agents by assessing anticonvulsive effects. Additionally the role of organic acid transporters in the elimination from the brain of tested agents was assessed by using an inhibitor, Probenicid, on the duration of anticonvulsive activity.
(§3) Male albino Swiss mice (19-21 g) housed 10-15 per cage were used for the NMDA lethality test (Leander et al., 1988). For pentylenetetrazol (PTZ)-induced convulsions male albino Swiss mice (25-34 g.) housed 40 per cage (58×38×20 cm) were used while in the maximal electroshock (MES) and motor impairment tests NMR female mice (18-28 g) housed 5 per cage were employed. All animals were kept with water and food ad libittum under a 12-h light-dark cycle (light on at 6 a.m.), and at a controlled temperature (20°±0.5° C.). All experiments were performed between 10 a.m. and 5 p.m. Tested agents were injected 15 min. i.p before the induction of convulsions if not stated otherwise (see below). Mrz 2/502 was dissolved in saline added with NaOH. Most other agents were dissolved in the following solution: 0.606 g Tris; 5.0 g. glucose; 0.5 g. Tween 80; and 95 ml water. The choline and tetramethylammonium salts were dissolved in distilled water.
MES (100 Hz, 0.5 sec shock duration, 50 mA shock intensity, 0.9 ms impulse duration, Ugo Basile) was applied through corneal electrodes. The presence of tonic convulsions was scored (tonic extension of hind paws with minimum angle to the body of 90°). In an additional experiment mice were injected with Probenicid (200 mg/kg) 30 min before administration of the tested agents to assess the role of organic acid transport in elimination (duration of action). The aim was to obtain ED50 s for all parameters scored using the Litchfield Wilcoxon (1949) test for quantal dose responses.

NMDA receptor [4] = target: T1, NMDA receptor; assay: Microelectrophoretic application of NMDA to spinal neurones in vivo; settings: responses of single rat spinal neurones; for ED50: rat, iv, read-out: Microelectrophoretic NMDA ID50; for Microelectrophoretic NMDA ID50: i.v.
Protocol: as §1

NMDA receptor [5] = target: T3, NMDA receptor; assay: NMDA-induced convulsions / lethality test; assay type: in vivo; settings: ip, 0.25 h, i.p., 15 min before induction, read-out: NMDA ID50
Protocol: as §2, §3
In the NMDA-induced convulsions test in mice, a dose-response relationship for NMDA was first performed to determine the ED97 dose which was then used for testing of antagonistic properties. After injection of the ED97 dose of NMDA the animals were placed in a small cage (20×28×14 cm) and observed for 20 min. Death preceded by clonic convulsions and by tonic seizures was the pharmacological end-point.

[6] = peak currents, read-out: Peak NMDA IC50
[7] = plateau (steady-state) currents, read-out: Plateau NMDA IC50

SMILES | IC50 (NMDA receptor [1]; [6]) | IC50 (NMDA receptor [1]; [7]) | IC50 [2] | further results
O=c1[nH]nc(O)c2c1cc1cc(Cl)c(Br)cc1[n+]2[O-] [Mrz 2/568, 7-bromo-8-chloro-4-hydroxy-1-oxo-1,2-dihydropyridazino-[4,5-b]-quinoline 5-oxide] | 10000 nM | 1500 nM | – | –
O=c1[nH][nH]c(=O)c2nc3ccc(Cl)cc3cc12 [Mrz 2/569] | 2000 nM | 500 nM | 970 nM | Microelectrophoretic AMPA ID50 (AMPA): > 16.0 mg/kg; MES ID50 (NMDA receptor [3]; listed as 569, 15 min): > 50 mg/kg; ED50 (NMDA receptor [4]): > 16 mg/kg
O=c1[nH][nH]c(=O)c2nc3ccc(Br)cc3cc12 [Mrz 2/586] | 2200 nM | – | – | Microelectrophoretic AMPA ID50 (AMPA): > 16.0 mg/kg; MES ID50 (NMDA receptor [3]; listed as 586, 15 min): > 50 mg/kg; ED50 (NMDA receptor [4]): > 16 mg/kg
COc1ccc2c(c1)cc1c(=O)[nH]nc(O)c1[n+]2[O-] [Mrz 2/578] | 101000 nM | 7700 nM | – | ED50 (NMDA receptor [3]): > 100 mg/kg
O=c1[nH][nH]c(=O)c2nc3ccc(F)cc3cc12 [Mrz 2/572] | 12400 nM | 3500 nM | 1140 nM | Microelectrophoretic AMPA ID50 (AMPA): > 16.0 mg/kg; MES ID50 (NMDA receptor [3]; listed as 572, 15 min): > 100 mg/kg; ED50 (NMDA receptor [4]): > 16 mg/kg
O=c1[nH]nc(O)c2c1cc1cc(Br)c(Cl)cc1[n+]2[O-] [Mrz 2/551, 7-chloro-8-bromo-4-hydroxy-1-oxo-1,2-dihydropyridazino-[4,5-b]-quinoline 5-oxide] | 2400 nM | 600 nM | – | –
O=c1[nH]nc(O)c2c1cc1cc(Cl)ccc1[n+]2[O-] [Mrz 2/576, 8-chloro-4-hydroxy-1-oxo-1,2-dihydropyridazino[4,5-b]-quinoline 5-oxide choline salt] | 1100 nM | 500 nM | 450 nM | Microelectrophoretic AMPA ID50 (AMPA; listed as 576): > 16.0 mg/kg; MES ID50 (NMDA receptor [3]; listed as 576, 15 min): 7.7 mg/kg; Microelectrophoretic NMDA ID50 (NMDA receptor [4]; listed as 576): 2.8 mg/kg
O=c1[nH]nc(O)c2c1cc1cc(Cl)c(Cl)cc1[n+]2[O-] [Mrz 2/518, 7,8-dichloro-4-hydroxy-1-oxo-1,2-dihydropyridazino-[4,5-b]-quinoline 5-oxide] | 3800 nM | 800 nM | 650 nM | ED50 (NMDA receptor [3]): > 60 mg/kg; ED50 (NMDA receptor [5]): > 100 mg/kg
CCCN(CCC)S(=O)(=O)c1ccc(C(=O)O)cc1 [Probenecid, reference compound] | – | – | – | independent effect on MES-induced convulsions (NMDA receptor [3]; 200 mg/kg): no independent effect
O=c1[nH]nc(O)c2c1cc1cc(F)ccc1[n+]2[O-] [Mrz 2/571, 8-fluoro-4-hydroxy-1-oxo-1,2-dihydropyridazino[4,5-b]-quinoline 5-oxide choline salt] | 4900 nM | 1000 nM | 320 nM | Microelectrophoretic AMPA ID50 (AMPA; listed as 571): 9.2 mg/kg; MES ID50 (NMDA receptor [3]; listed as 571, 15 min): 15.5 mg/kg; Microelectrophoretic NMDA ID50 (NMDA receptor [4]; listed as 571): 4.7 mg/kg
O=c1[nH]nc(O)c2c1cc1ccccc1[n+]2[O-] [Mrz 2/577, 4-hydroxy-1-oxo-1,2-dihydro-pyridazino[4,5-b]-quinoline 5-oxide choline salt] | – | – | – | Microelectrophoretic AMPA ID50 (AMPA): > 32.0 mg/kg; MES ID50 (NMDA receptor [3]; listed as 577, 15 min): 23.7 mg/kg; ED50 (NMDA receptor [4]): 34 mg/kg
COc1ccc2cc3c(=O)[nH][nH]c(=O)c3nc2c1 [Mrz 2/575] | 94000 nM | 14500 nM | – | ED50 (NMDA receptor [3]): > 100 mg/kg
COc1ccc2nc3c(=O)[nH][nH]c(=O)c3cc2c1 [Mrz 2/554] | 170000 nM | 36200 nM | – | ED50 (NMDA receptor [3]): > 100 mg/kg
O=c1[nH][nH]c(=O)c2nc3cc(Cl)c(Cl)cc3cc12 [Mrz 2/574] | – | – | – | MES ID50 (NMDA receptor [3]; listed as 574, 15 min): > 100 mg/kg
